The values that follow come from US20250388592A1 (REMYND N.V., priority 2022, published 2025).

pEC50: −log10 of the molar value.

The test system of the test is M17_3TAU(P301L) cells. Nature of the test: TAU-induced cytotoxicity (LDH) in the neuroblastoma tauopathy model. The class given is cell-based. The settings on record: Homo sapiens, 168 h, inhibition of TAU-induced toxicity, 7 days retinoic acid differentiation, LDH readout. In short, it runs like this:
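Stably transfected BE-M17 cells expressing human TAU-P301L, seeded in serum-free detection medium, then differentiated with 2.5 μM RA (added in equal volume) for 7 days at 37° C/5% CO2 to induce TAU aggregation. Cytotoxicity = supernatant LDH increase over total LDH; EC50 from dose-dependent inhibition curves.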

Broadly, the pEC50 is the negative decadic logarithm of the EC50, by convention in mol/L. A higher pEC50 goes with a small EC50.

`COc1cccc(CN2CC3(C2)CN(S(=O)(=O)Cc2ccc(F)cc2)C3)c1` [Cpd B221] gave a pEC50 of 7.73.
The compound `COc1cccc(CN2CC3(C2)CN(S(=O)(=O)Cc2ccc(C(F)(F)F)cc2)C3)c1` [Cpd B224] gave a pEC50 of 7.92.
For `COc1cccc(CN2CC3(CN(Cc4ccc(Cl)cc4)C3)C2)c1` [Cpd B225, 2-(4-chlorobenzyl)-6-(3-methoxybenzyl)-2,6-diazaspiro[3.3]heptane], the pEC50 is 8.28.
Turning to `COc1cccc(CN2CC3(CN(Cc4ccc(F)cc4)C3)C2)c1` [Cpd B226], the negative logarithm of the EC50 (pEC50) was 8.94.
As for `Fc1ccc(Cc2nsc(NC3CC4(CC(NCc5ccccc5)C4)C3)n2)cc1` (stereo not shown) [Cpd B301, N-benzyl-N′-(3-(4-fluorobenzyl)-1,2,4-thiadiazol-5-yl) spiro[3.3]heptane-2,6-diamine], the pEC50 was 7.95.
The compound `CN(Cc1ccccc1)C1CC2(CC(Nc3nc(Cc4ccc(F)cc4)ns3)C2)C1` (stereo not shown) [Cpd B302, N-benzyl-N′-(3-(4-fluorobenzyl)-1,2,4-thiadiazol-5-yl)-N-methyl spiro[3.3]heptane-2,6-diamine] gave a pEC50 of 9.05.
`Clc1ccc(CNC2CC3(C2)CC(Nc2nc(Cc4ccc(Cl)cc4)ns2)C3)cc1` (stereo not shown) [Cpd B303, N-(4-chlorobenzyl)-N′-(3-(4-chlorobenzyl)-1,2,4-thiadiazol-5-yl) spiro[3.3]heptane-2,6-diamine] gave a pEC50 of 7.93.
The compound `FC(F)(F)c1ccc(CNC2CC3(C2)CC(Nc2nc(Cc4ccc(Cl)cc4)ns2)C3)cc1` (stereo not shown) [Cpd B304, N-(3-(4-chlorobenzyl)-1,2,4-thiadiazol-5-yl)-N′-(4-(trifluoromethyl)benzyl) spiro[3.3]heptane-2,6-diamine] gave a negative logarithm of the EC50 (pEC50) of 7.50.
As for `COc1ccccc1CNC1CC2(C1)CC(Nc1nc(Cc3ccc(Cl)cc3)ns1)C2` (stereo not shown) [Cpd B305, N-(3-(4-chlorobenzyl)-1,2,4-thiadiazol-5-yl)-N′-(2-methoxybenzyl) spiro[3.3]heptane-2,6-diamine], the figure is 8.66; as for `Clc1ccc(Cc2nsc(NC3CC4(CC(NCc5ccc(Cl)c(Cl)c5)C4)C3)n2)cc1` (stereo not shown) [Cpd B306, N-(3-(4-chlorobenzyl)-1,2,4-thiadiazol-5-yl)-N′-(3,4-dichlorobenzyl) spiro[3.3]heptane-2,6-diamine], 7.45.
The compound `Clc1ccc(Cc2nsc(NC3CC4(CC(NCc5ccc(Cl)cc5Cl)C4)C3)n2)cc1` (stereo not shown) [Cpd B307, N-(3-(4-chlorobenzyl)-1,2,4-thiadiazol-5-yl)-N′-(2,4-dichlorobenzyl) spiro[3.3]heptane-2,6-diamine] showed a negative logarithm of the EC50 (pEC50) of 8.89.
In turn, `Clc1ccc(Cc2nsc(NC3CC4(CC(NCc5cc(Cl)ccc5Cl)C4)C3)n2)cc1` (stereo not shown) [Cpd B308, N-(3-(4-chlorobenzyl)-1,2,4-thiadiazol-5-yl)-N′-(2,5-dichlorobenzyl) spiro[3.3]heptane-2,6-diamine] showed a negative-log EC50 (pEC50) of 8.42.
`Cc1cc(CNC2CC3(C2)CC(Nc2nc(Cc4ccc(Cl)cc4)ns2)C3)ccc1F` (stereo not shown) [Cpd B309, N-(3-(4-chlorobenzyl)-1,2,4-thiadiazol-5-yl)-N′-(4-fluoro-3-methylbenzyl) spiro[3.3]heptane-2,6-diamine]: the pEC50 is 7.92.
For `COc1cccc(CNC2CC3(C2)CC(Nc2nc(Cc4ccc(Cl)cc4)ns2)C3)c1` (stereo not shown) [Cpd B310, N-(3-(4-chlorobenzyl)-1,2,4-thiadiazol-5-yl)-N′-(3-methoxybenzyl) spiro[3.3]heptane-2,6-diamine] the value was 8.34; for `COc1cccc(OC)c1CNC1CC2(C1)CC(Nc1nc(Cc3ccc(Cl)cc3)ns1)C2` (stereo not shown) [Cpd B311, N-(3-(4-chlorobenzyl)-1,2,4-thiadiazol-5-yl)-N′-(2,6-dimethoxybenzyl) spiro[3.3]heptane-2,6-diamine], 8.40; for `Fc1ccccc1CNC1CC2(C1)CC(Nc1nc(Cc3ccc(Cl)cc3)ns1)C2` (stereo not shown) [Cpd B312, N-(3-(4-chlorobenzyl)-1,2,4-thiadiazol-5-yl)-N′-(2-fluorobenzyl) spiro[3.3]heptane-2,6-diamine], 8.66.
On to `COc1ccc(CNC2CC3(C2)CC(Nc2nc(Cc4ccc(Cl)cc4)ns2)C3)cc1F` (stereo not shown) [Cpd B313, N-(3-(4-chlorobenzyl)-1,2,4-thiadiazol-5-yl)-N′-(3-fluoro-4-methoxybenzyl) spiro[3.3]heptane-2,6-diamine], for which the pEC50 is 8.54.
For `COc1cccc(CNC2CC3(C2)CC(Nc2nc(Cc4ccc(Cl)cc4)ns2)C3)c1OC` (stereo not shown) [Cpd B314, N-(3-(4-chlorobenzyl)-1,2,4-thiadiazol-5-yl)-N′-(2,3-dimethoxybenzyl) spiro[3.3]heptane-2,6-diamine] the value was 8.52; for `CCOc1ccccc1CNC1CC2(C1)CC(Nc1nc(Cc3ccc(Cl)cc3)ns1)C2` (stereo not shown) [Cpd B315, N-(3-(4-chlorobenzyl)-1,2,4-thiadiazol-5-yl)-N′-(2-ethoxybenzyl) spiro[3.3]heptane-2,6-diamine], 8.40.
`COc1ccc(CNC2CC3(C2)CC(Nc2nc(Cc4ccc(Cl)cc4)ns2)C3)c(OC)c1` (stereo not shown) [Cpd B316, N-(3-(4-chlorobenzyl)-1,2,4-thiadiazol-5-yl)-N′-(2,4-dimethoxybenzyl) spiro[3.3]heptane-2,6-diamine] had a pEC50 of 8.51.
`COc1ccc(CNC2CC3(C2)CC(Nc2nc(Cc4ccc(Cl)cc4)ns2)C3)cc1OC` (stereo not shown) [Cpd B317, N-(3-(4-chlorobenzyl)-1,2,4-thiadiazol-5-yl)-N′-(3,4-dimethoxybenzyl) spiro[3.3]heptane-2,6-diamine]: the pEC50 was 7.39.
`COc1ccc(CNC2CC3(C2)CC(Nc2nc(Cc4ccc(Cl)cc4)ns2)C3)cc1` (stereo not shown) [Cpd B318, N-(3-(4-chlorobenzyl)-1,2,4-thiadiazol-5-yl)-N′-(4-methoxybenzyl) spiro[3.3]heptane-2,6-diamine]: the negative logarithm of the EC50 (pEC50) was 8.00.
`Cc1ccc(CNC2CC3(C2)CC(Nc2nc(Cc4ccc(Cl)cc4)ns2)C3)c(C)c1` (stereo not shown) [Cpd B319, N-(3-(4-chlorobenzyl)-1,2,4-thiadiazol-5-yl)-N′-(2,4-dimethylbenzyl) spiro[3.3]heptane-2,6-diamine] showed a negative logarithm of the EC50 (pEC50) of 8.68.
The compound `Clc1ccc(Cc2nsc(NC3CC4(CC(NCc5ccc6c(c5)OCO6)C4)C3)n2)cc1` (stereo not shown) [Cpd B320, N-(benzo[d][1,3]dioxol-5-ylmethyl)-N′-(3-(4-chlorobenzyl)-1,2,4-thiadiazol-5-yl) spiro[3.3]heptane-2,6-diamine] had a pEC50 of 8.85.
In the case of `Cc1ccc(CNC2CC3(C2)CC(Nc2nc(Cc4ccc(Cl)cc4)ns2)C3)cc1` (stereo not shown) [Cpd B321, N-(3-(4-chlorobenzyl)-1,2,4-thiadiazol-5-yl)-N′-(4-methylbenzyl) spiro[3.3]heptane-2,6-diamine], the negative-log EC50 (pEC50) is 8.07.
As for `FC(F)(F)c1ccccc1CNC1CC2(C1)CC(Nc1nc(Cc3ccc(Cl)cc3)ns1)C2` (stereo not shown) [Cpd B322, N-(3-(4-chlorobenzyl)-1,2,4-thiadiazol-5-yl)-N′-(2-(trifluoromethyl)benzyl) spiro[3.3]heptane-2,6-diamine], the figure is 8.55; as for `Fc1cccc(CNC2CC3(C2)CC(Nc2nc(Cc4ccc(Cl)cc4)ns2)C3)c1` (stereo not shown) [Cpd B323, N-(3-(4-chlorobenzyl)-1,2,4-thiadiazol-5-yl)-N′-(3-fluorobenzyl)spiro[3.3]heptane-2,6-diamine], 8.70; as for `Cc1cccc(CNC2CC3(C2)CC(Nc2nc(Cc4ccc(Cl)cc4)ns2)C3)c1` (stereo not shown) [Cpd B324, N-(3-(4-chlorobenzyl)-1,2,4-thiadiazol-5-yl)-N′-(3-methylbenzyl) spiro[3.3]heptane-2,6-diamine], 8.59.
